# In ChEMBL document CHEMBL3585339, “Synthesis, biological activities and pharmacokinetic properties of new fluorinated derivatives of selective PDE4D inhibitors” (Bioorg Med Chem, 2015):
# Calls of active or inactive are those of the source. The calls are words filed in the database; no cut-off is given here.
# Key:
# [1] = Cytotoxicity against human HTLA-230 cells at 100 uM after 24 hrs by lactate dehydrogenase release assay (reference value: 0.67 +/- 0.24%); format: cell-based; details: htla-230, 24 h
# [2] = Elimination half life in BALB/c mouse plasma at 10 mg/kg, sc by LC-MS/MS analysis; format: ADME, organism-based; details: read-out: beta t1/2 (converted)
# [3] = Plasma concentration in BALB/c mouse at 10 mg/kg, sc measured at 0.17 hrs by LC-MS/MS analysis; format: ADME, organism-based
# [4] = Ratio of AUC (0 to t) in BALB/c mouse brain to AUC (0 to t) in BALB/c mouse plasma at 10 mg/kg, sc by LC-MS/MS analysis; format: ADME, organism-based; details: read-out: Ratio AUC
# [5] = Cmax in BALB/c mouse plasma at 10 mg/kg, sc by LC-MS/MS analysis; format: ADME, organism-based; set-up: dose 10 mg/kg, route subcutaneous
# [6] = Plasma concentration in BALB/c mouse at 10 mg/kg, sc measured at 5 hrs by LC-MS/MS analysis; format: ADME, organism-based
# [7] = Drug uptake in BALB/c mouse brain at 10 mg/kg, sc measured at 1 hr by LC-MS/MS analysis; format: ADME, organism-based; details: read-out: Drug uptake
# Brain = assay: AUC (0 to t) in BALB/c mouse brain at 10 mg/kg, sc by LC-MS/MS analysis; format: ADME, organism-based; details: in vivo
# Mus musculus [8] = assay: Toxicity in mouse assessed as sedative effect by measuring reduction of total distance traveled at 10 mg/kg, po measured over 60 mins by open-field test; format: organism-based; details: in vivo, 1 h
# [9] = Drug uptake in BALB/c mouse brain at 10 mg/kg, sc measured at 5 hrs by LC-MS/MS analysis; format: ADME, organism-based; details: read-out: Drug uptake
# [10] = Plasma concentration in BALB/c mouse at 10 mg/kg, sc measured at 0.33 hrs by LC-MS/MS analysis; format: ADME, organism-based
# [11] = Plasma concentration in BALB/c mouse at 10 mg/kg, sc measured at 2 hrs by LC-MS/MS analysis; format: ADME, organism-based
# [12] = Plasma concentration in BALB/c mouse at 10 mg/kg, sc measured at 3 hrs by LC-MS/MS analysis; format: ADME, organism-based
# [13] = Tmax in BALB/c mouse plasma at 10 mg/kg, sc by LC-MS/MS analysis; format: ADME, organism-based
# Mus musculus [14] = assay: Toxicity in mouse assessed as sedative effect by measuring prolongation of immobility time at 10 mg/kg, po measured over 60 mins by open-field test; format: organism-based; details: in vivo, 1 h
# [15] = Elimination half life in BALB/c mouse brain at 10 mg/kg, sc by LC-MS/MS analysis; format: ADME, organism-based; details: read-out: beta t1/2 (converted)
# [16] = Tmax in BALB/c mouse brain at 10 mg/kg, sc by LC-MS/MS analysis; format: ADME, organism-based
# [17] = Drug uptake in BALB/c mouse brain at 10 mg/kg, sc measured at 2 hrs by LC-MS/MS analysis; format: ADME, organism-based; details: read-out: Drug uptake
# [18] = Plasma concentration in BALB/c mouse at 10 mg/kg, sc measured at 1 hr by LC-MS/MS analysis; format: ADME, organism-based
# [19] = target: T1, 3',5'-cyclic-AMP phosphodiesterase 4D (Homo sapiens, UniProt Q08499); assay: Inhibition of human recombinant PDE4D3 expressed in baculoviral system using cAMP as substrate at 10 uM by fluorescence polarization assay relative to control
# T1 sequence (Q08499 whole entry): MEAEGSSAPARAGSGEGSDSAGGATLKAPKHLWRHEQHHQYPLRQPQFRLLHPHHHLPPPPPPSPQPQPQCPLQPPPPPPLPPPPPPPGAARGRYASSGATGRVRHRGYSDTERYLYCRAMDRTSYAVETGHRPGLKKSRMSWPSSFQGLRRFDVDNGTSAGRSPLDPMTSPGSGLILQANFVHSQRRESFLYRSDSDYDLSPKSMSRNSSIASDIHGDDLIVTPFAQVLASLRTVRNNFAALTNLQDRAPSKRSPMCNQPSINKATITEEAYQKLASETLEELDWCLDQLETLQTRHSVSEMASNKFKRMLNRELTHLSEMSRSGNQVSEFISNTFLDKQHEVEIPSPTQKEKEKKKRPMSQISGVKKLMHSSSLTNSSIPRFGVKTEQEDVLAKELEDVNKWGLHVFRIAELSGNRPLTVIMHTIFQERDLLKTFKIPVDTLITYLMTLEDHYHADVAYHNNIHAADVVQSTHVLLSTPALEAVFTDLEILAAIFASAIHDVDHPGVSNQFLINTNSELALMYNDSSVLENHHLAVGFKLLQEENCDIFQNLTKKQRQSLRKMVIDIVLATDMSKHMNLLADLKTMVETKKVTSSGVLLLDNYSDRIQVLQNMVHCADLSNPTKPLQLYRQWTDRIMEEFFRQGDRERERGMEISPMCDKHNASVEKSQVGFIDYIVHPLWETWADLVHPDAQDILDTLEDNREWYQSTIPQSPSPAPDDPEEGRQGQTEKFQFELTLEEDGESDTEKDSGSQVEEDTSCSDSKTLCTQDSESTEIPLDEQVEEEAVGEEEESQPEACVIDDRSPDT
# [20] = target: 3',5'-cyclic-AMP phosphodiesterase 4A (Homo sapiens) (UniProt P27815); assay: Inhibition of human recombinant PDE4A4 expressed in baculoviral system using cAMP as substrate at 10 uM by fluorescence polarization assay relative to control
# 3',5'-cyclic-AMP phosphodiesterase 4A (Homo sapiens), sequence (P27815 whole entry): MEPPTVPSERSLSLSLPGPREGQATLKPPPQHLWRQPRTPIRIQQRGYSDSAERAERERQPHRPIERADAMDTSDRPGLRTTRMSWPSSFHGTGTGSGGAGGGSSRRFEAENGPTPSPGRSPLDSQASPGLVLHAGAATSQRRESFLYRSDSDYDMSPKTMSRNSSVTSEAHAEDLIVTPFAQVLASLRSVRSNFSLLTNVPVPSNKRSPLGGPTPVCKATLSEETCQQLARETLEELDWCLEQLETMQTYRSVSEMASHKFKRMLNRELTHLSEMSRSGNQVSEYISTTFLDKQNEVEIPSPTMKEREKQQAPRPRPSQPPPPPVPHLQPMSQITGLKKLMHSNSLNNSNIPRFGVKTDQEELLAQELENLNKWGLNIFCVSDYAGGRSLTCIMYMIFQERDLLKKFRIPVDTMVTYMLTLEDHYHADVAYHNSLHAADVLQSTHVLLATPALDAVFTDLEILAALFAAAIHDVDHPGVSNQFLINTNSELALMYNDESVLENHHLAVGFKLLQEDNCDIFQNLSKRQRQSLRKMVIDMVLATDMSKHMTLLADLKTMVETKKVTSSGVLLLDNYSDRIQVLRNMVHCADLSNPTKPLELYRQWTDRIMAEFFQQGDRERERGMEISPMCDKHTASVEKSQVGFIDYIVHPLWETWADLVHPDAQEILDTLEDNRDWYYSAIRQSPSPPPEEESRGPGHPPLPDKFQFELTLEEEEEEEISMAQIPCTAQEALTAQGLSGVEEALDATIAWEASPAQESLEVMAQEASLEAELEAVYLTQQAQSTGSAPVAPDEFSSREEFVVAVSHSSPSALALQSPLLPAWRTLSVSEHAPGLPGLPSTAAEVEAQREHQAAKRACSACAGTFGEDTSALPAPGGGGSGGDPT
# [21] = Drug uptake in BALB/c mouse brain at 10 mg/kg, sc measured at 0.67 hrs by LC-MS/MS analysis; format: ADME, organism-based; details: read-out: Drug uptake
# [22] = AUC (0 to t) in BALB/c mouse plasma at 10 mg/kg, sc by LC-MS/MS analysis; format: ADME, organism-based
# [23] = Drug uptake in BALB/c mouse brain at 10 mg/kg, sc measured at 0.33 hrs by LC-MS/MS analysis; format: ADME, organism-based; details: read-out: Drug uptake
# [24] = target: T1, 3',5'-cyclic-AMP phosphodiesterase 4D; assay: Inhibition of human recombinant PDE4D3 expressed in baculoviral system using cAMP as substrate by fluorescence polarization assay
# [25] = Cmax in BALB/c mouse brain at 10 mg/kg, sc by LC-MS/MS analysis; format: ADME, organism-based; set-up: dose 10 mg/kg, route subcutaneous
# [26] = Drug uptake in BALB/c mouse brain at 10 mg/kg, sc measured at 3 hrs by LC-MS/MS analysis; format: ADME, organism-based; details: read-out: Drug uptake
# [27] = Drug uptake in BALB/c mouse brain at 10 mg/kg, sc measured at 0.17 hrs by LC-MS/MS analysis; format: ADME, organism-based; details: read-out: Drug uptake
# [28] = Effect on cAMP level in human HTLA-230 cells at 100 uM after 10 mins by enzyme immunoassay; format: ADME, cell-based; details: htla-230, 10 min
# [29] = Plasma concentration in BALB/c mouse at 10 mg/kg, sc measured at 0.67 hrs by LC-MS/MS analysis; format: ADME, organism-based
# [30] = target: T1, 3',5'-cyclic-AMP phosphodiesterase 4D; assay: Inhibition of PDE4D in human HTLA-230 cells assessed as increase in forskolin-induced cAMP accumulation at 100 uM pretreated for 10 mins followed by forskolin induction measured after 20 mins by enzyme immunoassay; format: cell-based
# [31] = Genotoxicity in human HTLA-230 cells assessed as gamma-H2AX production at 100 uM after 24 hrs by Western blot analysis; format: toxicity, cell-based; details: htla-230, 24 h
# [32] = target: 3',5'-cyclic-AMP phosphodiesterase 4B (Homo sapiens) (UniProt Q07343); assay: Inhibition of human recombinant PDE4B2 expressed in baculoviral system using cAMP as substrate at 10 uM by fluorescence polarization assay relative to control
# 3',5'-cyclic-AMP phosphodiesterase 4B (Homo sapiens), sequence (Q07343 whole entry): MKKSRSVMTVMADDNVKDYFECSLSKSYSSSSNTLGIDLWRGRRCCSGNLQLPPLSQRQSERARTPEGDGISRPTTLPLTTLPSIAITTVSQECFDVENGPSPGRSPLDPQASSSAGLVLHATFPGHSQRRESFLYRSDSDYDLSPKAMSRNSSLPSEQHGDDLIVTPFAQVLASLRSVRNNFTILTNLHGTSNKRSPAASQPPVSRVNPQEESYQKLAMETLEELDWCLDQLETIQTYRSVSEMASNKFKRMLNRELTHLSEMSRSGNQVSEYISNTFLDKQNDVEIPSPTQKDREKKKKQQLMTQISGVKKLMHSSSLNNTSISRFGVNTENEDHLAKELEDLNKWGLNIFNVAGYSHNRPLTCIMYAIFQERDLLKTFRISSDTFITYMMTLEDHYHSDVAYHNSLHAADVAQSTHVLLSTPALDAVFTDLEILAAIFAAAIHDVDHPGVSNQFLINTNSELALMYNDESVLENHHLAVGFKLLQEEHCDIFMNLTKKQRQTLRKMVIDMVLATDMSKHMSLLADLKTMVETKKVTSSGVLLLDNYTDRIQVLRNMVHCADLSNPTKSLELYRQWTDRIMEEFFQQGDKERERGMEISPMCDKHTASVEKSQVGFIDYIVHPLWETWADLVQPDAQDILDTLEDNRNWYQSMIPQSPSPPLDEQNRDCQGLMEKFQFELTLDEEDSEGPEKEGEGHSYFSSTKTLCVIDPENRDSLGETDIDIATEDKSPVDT
# [33] = Cytotoxicity against human HTLA-230 cells at 10 uM after 24 hrs by lactate dehydrogenase release assay (reference value: 0.67 +/- 0.24%); format: cell-based; details: htla-230, 24 h
smiles,measurement,setting,value
CC1CN(C(=O)CO/N=C/c2ccc(OC(F)F)c(OC3CCCC3)c2)CC(C)O1 (stereo not given),Activity,[1],0.01%
same,half-life,[2],42 min
same,concentration at 0.17 h,[3],2160 ng/mL
same,Kp,[4],0.429
same,Cmax,[5],4410 ng/mL
same,concentration at 5 h,[6],67.2 ng/mL
same,concentration at 1 h,[7],303 ng/g
same,AUCt,Brain,391 ng·h/g
same,Activity,Mus musculus [8],Non-toxic
same,concentration at 5 h,[9],2.94 ng/g
same,concentration at 0.33 h,[10],1740 ng/mL
same,concentration at 2 h,[11],217 ng/mL
same,concentration at 3 h,[12],11.6 ng/mL
same,Tmax,[13],10.2 min
same,Activity,Mus musculus [14],Non-toxic
same,half-life,[15],81.6 min
same,Tmax,[16],10.2 min
same,concentration at 2 h,[17],96 ng/g
same,concentration at 1 h,[18],657 ng/mL
same,inhibition,[19],74%
same,inhibition,[20],32%
same,concentration at 0.67 h,[21],453 ng/g
same,AUC(0-t),[22],1220 ng·h/mL
same,concentration at 0.33 h,[23],790 ng/g
same,IC50,[24],4840 nM
same,Cmax,[25],1570 ng/g
same,concentration at 3 h,[26],5.45 ng/g
same,concentration at 0.17 h,[27],936 ng/g
same,Activity,[28],Non-toxic
same,concentration at 0.67 h,[29],1090 ng/mL
same,inhibition,[30],Active
same,Activity,[31],Non-toxic
same,inhibition,[32],29%
CC1CN(C(=O)CCO/N=C/c2ccc(OC(F)F)c(OC3CCCC3)c2)CC(C)O1 (stereo not given),Activity,[1],0.01%
same,inhibition,[19],63%
same,inhibition,[20],34%
same,IC50,[24],470 nM
same,Activity,[31],Non-toxic
same,inhibition,[32],37%
O=C(CO/N=C/c1ccc(OC(F)F)c(OC2CCCC2)c1)N1CCOCC1,Activity,[1],2.06%
same,inhibition,[19],63%
same,inhibition,[20],36%
same,IC50,[24],1120 nM
same,inhibition,[32],31%
OC1CCN(CC(O)CO/N=C/c2ccc(OC(F)F)c(OC3CCCC3)c2)CC1 (stereo not given),Activity,[1],31.37%
same,inhibition,[19],51%
same,inhibition,[20],15%
same,Activity,[33],3.42%
same,IC50,[24],2540 nM
same,inhibition,[32],15%
COc1ccc(/C=N/OCC(O)CN2CC(C)OC(C)C2)cc1OC1CCCC1 (stereo not given),Activity,Mus musculus [8],Non-toxic
same,Activity,Mus musculus [14],Non-toxic
COc1cc([C@@H]2c3cc4c(cc3[C@@H](O[C@@H]3O[C@@H]5CO[C@@H](C)O[C@H]5[C@H](O)[C@H]3O)[C@H]3COC(=O)[C@H]23)OCO4)cc(OC)c1O [ETOPOSIDE],Activity,[31],Toxic
CC1CN(CC(O)CO/N=C/c2ccc(OC(F)F)c(OC3CCCC3)c2)CC(C)O1 (stereo not given),Activity,[1],8.83%
same,Activity,Mus musculus [8],Toxic
same,Activity,Mus musculus [14],Toxic
same,inhibition,[19],84%
same,inhibition,[20],68%
same,Activity,[33],0.01%
same,IC50,[24],190 nM
same,inhibition,[32],68%
COc1ccc(C2CNC(=O)C2)cc1OC1CCCC1 (stereo not given) [ROLIPRAM],Activity,Mus musculus [8],Toxic
same,Activity,Mus musculus [14],Toxic
CC1CN(NCC(O)CO/N=C/c2ccc(OC(F)F)c(OC3CCCC3)c2)CC(C)O1 (stereo not given),Activity,[1],1.54%
same,inhibition,[19],87%
same,inhibition,[20],58%
same,IC50,[24],190 nM
same,inhibition,[32],51%
CN1C(=O)CN=C(c2ccccc2)c2cc(Cl)ccc21 [DIAZEPAM],Activity,Mus musculus [8],Toxic
same,Activity,Mus musculus [14],Toxic
COc1ccc(/C=N/OCC(=O)N2CC(C)OC(C)C2)cc1OC1CCCC1 (stereo not given),Activity,[1],0.14%
same,half-life,[2],49.2 min
same,concentration at 0.17 h,[3],4410 ng/mL
same,Kp,[4],0.358
same,Cmax,[5],2160 ng/mL
same,concentration at 5 h,[6],10.4 ng/mL
same,concentration at 1 h,[7],3.29 ng/g
same,AUCt,Brain,812 ng·h/g
same,Activity,Mus musculus [8],Non-toxic
same,concentration at 0.33 h,[10],1310 ng/mL
same,concentration at 2 h,[11],20 ng/mL
same,concentration at 3 h,[12],2.18 ng/mL
same,Tmax,[13],10.2 min
same,Activity,Mus musculus [14],Non-toxic
same,half-life,[15],32.4 min
same,Tmax,[16],10.2 min
same,concentration at 2 h,[17],2.21 ng/g
same,concentration at 1 h,[18],32.8 ng/mL
same,concentration at 0.67 h,[21],84.2 ng/g
same,AUC(0-t),[22],1890 ng·h/mL
same,concentration at 0.33 h,[23],396 ng/g
same,Cmax,[25],936 ng/g
same,concentration at 3 h,[26],1.19 ng/g
same,concentration at 0.17 h,[27],1570 ng/g
same,Activity,[28],Non-toxic
same,concentration at 0.67 h,[29],343 ng/mL
same,inhibition,[30],Active
same,Activity,[31],Non-toxic
OC(CO/N=C/c1ccc(OC(F)F)c(OC2CCCC2)c1)CN1CCOCC1 (stereo not given),Activity,[1],0.21%
same,inhibition,[19],83%
same,inhibition,[20],41%
same,IC50,[24],1490 nM
same,Activity,[31],Non-toxic
same,inhibition,[32],43%
O=C(CO/N=C/c1ccc(OC(F)F)c(OC2CCCC2)c1)N1CCC(O)CC1,Activity,[1],4.62%
same,inhibition,[19],60%
same,inhibition,[20],28%
same,Activity,[33],0.01%
same,IC50,[24],2630 nM
same,inhibition,[32],26%
